# Experimental data: patent US4946951A, “2'-deoxy-5-fluorouridine derivatives” (Taiho Pharmaceutical Co., Ltd., priority 1987, dated 1990)
# Experiments:
# Sarcoma-180 [1] = experiment: antitumor activity against subcutaneous Sarcoma-180 in mice, tail vein administration (Pharmacological Test II); format: in vivo, ICR mice; conditions: Mus musculus, Sarcoma-180, iv, 240 h, once a day for 7 consecutive days, tumor weight on 10th day, read-out: ED50 (50% tumor inhibition dose, T/C = 0.5)
# Procedure: Sarcoma-180 subcultured in ascites of ICR mice was diluted with a physiological saline and subcutaneously transplanted into the backs of ICR mice in an amount of 2×10^7 cells each. Twenty-four hours after the transplantation, a test compound dissolved in sterilized physiological saline was administered to the tail vein of each of the mice once a day for 7 consecutive days. The solid tumor was isolated from under the dorsal skin of mice on the 10th day after the transplantation to measure the weight of the tumor. There was determined the ratio (T/C) of the weight of tumor (T) of the test compound group to the weight of tumor (C) of the control group. The 50% tumor inhibition dose (ED50 value) in which T/C is 0.5 was determined from the dose response curve of dosage and the ratio (T/C).
# [2] = inhibition of body weight gain in Sarcoma-180 bearing mice, oral administration (Pharmacological Test I); format: in vivo, male mice of ICR/JCL strain; conditions: once a day for 7 consecutive days
# Procedure: (§1) Tissues of Sarcoma-180 were subcutaneously transplanted into the back of male mice of ICR/JCL strain (weighing 27 to 30 g) in an amount of 5×10^6 cells each. The test compound was administered in the form of a weakly acidic aqueous solution. The solution was orally given to each mouse (7 mice in each group) in a dose of 1.0 ml/100 g body weight once a day for 7 consecutive days starting 24 hours after the transplantation, and a weakly acidic aqueous solution containing no test compound was orally administered to the control group in an amount of 1.0 ml/100 g body weight once a day for 7 consecutive days starting 24 hours after the transplantation.
# (§2) The tumor was removed from the body on the 10the day after the transplantation and weighed to calculate the average weight of the tumors in the group to which the test compound-containing solution was given and the corresponding weight in the control group. The effective dose (ED50) for achieving 50% cancer inhibition was determined from the dose-response curve. The dose of 50% inhibition of body weight gain (IB50) was determined from the dose-body weight change curve. The therapeutic index (T.I. =IB50/ ED50) was determined with the results shown below in Table 6.
# Sarcoma-180 [3] = experiment: antitumor activity against subcutaneous Sarcoma-180 in mice, oral administration (Pharmacological Test I); format: in vivo, male mice of ICR/JCL strain; conditions: for ED50: Mus musculus, Sarcoma-180, 240 h, once a day for 7 consecutive days, tumor weight on 10th day, read-out: ED50 (effective dose for achieving 50% cancer inhibition)
# Procedure: as §1, §2
# [4] = compared with O^3' -p-chlorobenzyl-2'-deoxy-5-fluorouridine
structure (smiles),measurement,setting,value
NCC(=O)OC[C@H]1O[C@@H](n2cc(F)c(=O)[nH]c2=O)C[C@@H]1OCc1ccc(Cl)cc1Cl [Compound 19],ED50,Sarcoma-180 [1],0.8 mg/kg
NCC(=O)OC[C@H]1O[C@@H](n2cc(F)c(=O)[nH]c2=O)C[C@@H]1OCc1ccc(Cl)cc1 [Compound 28],ED50,Sarcoma-180 [1],1 mg/kg
CC(C)C[C@H](N)C(=O)OC[C@H]1O[C@@H](n2cc(F)c(=O)[nH]c2=O)C[C@@H]1OCc1ccc(Cl)cc1 [Compound 14],ED50,Sarcoma-180 [1],1.5 mg/kg
CC(C)[C@H](N)C(=O)OC[C@H]1O[C@@H](n2cc(F)c(=O)[nH]c2=O)C[C@@H]1OCc1ccc(Cl)cc1 [Compound 13],ED50,Sarcoma-180 [1],1.5 mg/kg
C[C@H](N)C(=O)OC[C@H]1O[C@@H](n2cc(F)c(=O)[nH]c2=O)C[C@@H]1OCc1ccc(Cl)cc1 [Compound 22],ED50,Sarcoma-180 [1],1 mg/kg
"Cl.NCC(=O)OC[C@H]1O[C@@H](n2cc(F)c(=O)[nH]c2=O)C[C@@H]1OCc1ccc(Cl)cc1 [Example 8 (E), 3'-O-(4-chlorobenzyl)-2'-deoxy-5-fluoro-5'-O-glycyluridine hydrochloride]",ED50,Sarcoma-180 [1],1 mg/kg
"O=c1[nH]c(=O)n([C@H]2C[C@H](OCc3ccc(Cl)cc3)[C@@H](CO)O2)cc1F [O^3' -p-chlorobenzyl-2'-deoxy-5-fluorouridine, reference compound]",IB50 (dose of 50% inhibition of body weight gain),[2],1.54 mg/kg/day
same,T.I. (therapeutic index = IB50/ED50),Sarcoma-180 [3],1.64
same,ED50,Sarcoma-180 [3],0.94 mg/kg
NCC(=O)OC[C@H]1O[C@@H](n2cc(F)c(=O)[nH]c2=O)C[C@@H]1OCc1ccc(Cl)cc1 [Compound 12],IB50 (dose of 50% inhibition of body weight gain),[2],3.60 mg/kg/day
same,T.I. (therapeutic index = IB50/ED50),Sarcoma-180 [3],4.80
same,ED50,Sarcoma-180 [3],0.75 mg/kg
same,anti-cancer effect in words,Sarcoma-180 [3]; [4],superior in anti-cancer effect
same,efficacy in words,Sarcoma-180 [3]; [4],higher in efficacy
same,therapeutic index in words,Sarcoma-180 [3]; [4],greater in therapeutic index
